Results on 7 molecules are retold here after US10179781B2, “Sodium channel modulators for the treatment of pain” (CHROMOCELL CORPORATION, priority 2013, dated 2019).

The target of the first experiment is T1, NaV1.7 (Homo sapiens, UniProt Q15858).
T1 construct: expressed in transfected cells
T1 sequence (Q15858 whole entry): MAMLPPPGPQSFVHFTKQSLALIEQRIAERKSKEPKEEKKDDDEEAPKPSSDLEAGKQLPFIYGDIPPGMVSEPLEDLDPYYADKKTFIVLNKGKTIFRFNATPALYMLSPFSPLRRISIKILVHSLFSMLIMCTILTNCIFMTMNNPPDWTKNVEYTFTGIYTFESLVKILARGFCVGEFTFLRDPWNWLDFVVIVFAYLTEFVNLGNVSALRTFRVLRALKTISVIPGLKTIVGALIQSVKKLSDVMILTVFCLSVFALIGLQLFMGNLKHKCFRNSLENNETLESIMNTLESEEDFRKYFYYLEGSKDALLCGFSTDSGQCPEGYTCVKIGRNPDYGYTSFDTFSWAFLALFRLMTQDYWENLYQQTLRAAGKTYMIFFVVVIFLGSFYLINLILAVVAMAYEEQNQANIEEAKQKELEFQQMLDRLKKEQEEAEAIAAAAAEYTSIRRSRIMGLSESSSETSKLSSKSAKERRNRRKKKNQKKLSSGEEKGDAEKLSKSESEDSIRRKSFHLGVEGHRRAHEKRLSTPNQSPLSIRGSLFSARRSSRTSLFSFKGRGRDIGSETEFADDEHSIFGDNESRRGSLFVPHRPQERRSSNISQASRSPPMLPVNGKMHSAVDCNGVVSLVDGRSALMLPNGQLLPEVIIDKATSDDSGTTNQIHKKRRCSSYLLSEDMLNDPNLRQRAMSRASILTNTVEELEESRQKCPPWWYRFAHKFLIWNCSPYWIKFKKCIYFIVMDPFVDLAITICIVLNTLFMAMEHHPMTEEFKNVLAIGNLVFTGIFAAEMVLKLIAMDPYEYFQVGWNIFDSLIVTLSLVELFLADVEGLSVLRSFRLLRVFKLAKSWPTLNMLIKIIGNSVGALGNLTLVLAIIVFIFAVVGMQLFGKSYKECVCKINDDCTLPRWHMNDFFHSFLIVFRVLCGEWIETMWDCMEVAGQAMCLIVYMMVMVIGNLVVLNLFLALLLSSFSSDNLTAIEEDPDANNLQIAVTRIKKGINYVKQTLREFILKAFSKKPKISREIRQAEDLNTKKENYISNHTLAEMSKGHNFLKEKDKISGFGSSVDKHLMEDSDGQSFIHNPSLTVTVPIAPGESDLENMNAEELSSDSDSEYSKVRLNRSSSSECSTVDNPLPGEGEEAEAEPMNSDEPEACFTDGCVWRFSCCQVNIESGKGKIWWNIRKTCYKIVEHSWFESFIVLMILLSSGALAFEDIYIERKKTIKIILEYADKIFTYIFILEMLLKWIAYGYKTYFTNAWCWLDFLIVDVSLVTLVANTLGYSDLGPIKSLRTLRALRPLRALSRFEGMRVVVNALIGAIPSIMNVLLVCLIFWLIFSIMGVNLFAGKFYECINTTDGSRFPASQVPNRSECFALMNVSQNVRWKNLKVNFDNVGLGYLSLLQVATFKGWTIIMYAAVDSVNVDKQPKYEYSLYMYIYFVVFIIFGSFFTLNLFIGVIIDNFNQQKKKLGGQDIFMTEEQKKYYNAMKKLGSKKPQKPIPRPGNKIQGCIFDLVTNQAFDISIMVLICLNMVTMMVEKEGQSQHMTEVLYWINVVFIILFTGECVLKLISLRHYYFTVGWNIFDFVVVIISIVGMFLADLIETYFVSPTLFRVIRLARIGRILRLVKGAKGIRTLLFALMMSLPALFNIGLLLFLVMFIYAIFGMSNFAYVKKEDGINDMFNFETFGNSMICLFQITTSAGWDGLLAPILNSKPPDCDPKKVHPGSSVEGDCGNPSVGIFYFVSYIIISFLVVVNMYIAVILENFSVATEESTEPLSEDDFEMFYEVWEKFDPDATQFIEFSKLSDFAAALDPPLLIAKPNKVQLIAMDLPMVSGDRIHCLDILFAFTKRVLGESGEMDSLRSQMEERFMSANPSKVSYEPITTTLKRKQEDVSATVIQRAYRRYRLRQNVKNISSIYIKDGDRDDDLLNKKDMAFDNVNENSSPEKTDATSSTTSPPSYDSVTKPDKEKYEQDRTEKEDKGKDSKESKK
T1 sequence (Q07699 19-218 partner): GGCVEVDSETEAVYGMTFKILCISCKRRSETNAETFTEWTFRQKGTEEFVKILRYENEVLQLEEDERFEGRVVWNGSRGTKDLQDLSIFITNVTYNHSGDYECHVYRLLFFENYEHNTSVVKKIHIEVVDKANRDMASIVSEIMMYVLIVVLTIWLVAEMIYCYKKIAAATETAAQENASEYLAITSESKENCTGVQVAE
T1 sequence (O60939 30-215 partner): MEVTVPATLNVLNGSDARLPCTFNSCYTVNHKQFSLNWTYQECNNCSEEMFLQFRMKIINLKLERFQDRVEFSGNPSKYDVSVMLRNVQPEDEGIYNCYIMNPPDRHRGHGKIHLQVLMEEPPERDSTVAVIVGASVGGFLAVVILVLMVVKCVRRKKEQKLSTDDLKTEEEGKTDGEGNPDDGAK
Description: FDSS membrane potential in-vitro assay. In kind it is cell-based. The settings on record: HEK293 cells expressing NaV1.7 α, β1, β2, veratridine and scorpion venom stimulation.
What is called IC50 is the concentration that gives 50% inhibition. `O=C(O)C1CCN(CCCc2cc(Cl)ccc2Oc2cc(F)c(S(=O)(=O)Nc3cscn3)cc2Cl)CC1` [Example 14, 1-(3-(5-chloro-2-(2-chloro-5-fluoro-4-(N-(thiazol-4-yl)sulfamoyl)phenoxy)phenyl)propyl)piperidine-4-carboxylic acid]: the half-inhibitory concentration (IC50) is above 1000 nM.

In turn, `NC(CCNCCCc1cc(Cl)ccc1Oc1cc(F)c(S(=O)(=O)Nc2cscn2)cc1Cl)C(=O)O` (stereo not shown) [Example 17, 2-amino-4-((3-(5-chloro-2-(2-chloro-5-fluoro-4-(N-(thiazol-4-yl)sulfamoyl)phenoxy)phenyl)propyl)amino)butanoic acid] returned an IC50 above 1000 nM. Molecule `O=C(O)C1CCCN(CCCc2cc(Cl)ccc2Oc2cc(F)c(S(=O)(=O)Nc3cscn3)cc2Cl)C1` (stereo not shown) [Example 19, 1-(3-(5-chloro-2-(2-chloro-5-fluoro-4-(N-(thiazol-4-yl)sulfamoyl)phenoxy)phenyl)propyl)piperidine-3-carboxylic acid] came in with an IC50 above 1000 nM.

As to `O=C(O)CNCCCc1cc(Cl)ccc1Oc1cc(F)c(S(=O)(=O)Nc2cscn2)cc1F` [Example 21, 2-((3-(5-chloro-2-(2,5-difluoro-4-(N-(thiazol-4-yl)sulfamoyl)phenoxy)phenyl)propyl)amino)acetic acid], the 50% inhibitory concentration (IC50) was above 1000 nM. `O=C(O)CCNCCCc1cc(Cl)ccc1Oc1cc(F)c(S(=O)(=O)Nc2cscn2)cc1F` [Example 22, 3-((3-(5-chloro-2-(2,5-difluoro-4-(N-(thiazol-4-yl)sulfamoyl)phenoxy)phenyl)propyl)amino)propanoic acid] had an IC50 above 1000 nM. Same read-out and setting: for `N#Cc1cc(S(=O)(=O)Nc2cscn2)ccc1Oc1ccc(Cl)cc1CCCNCCC(=O)O` [Example 23, 3-((3-(5-chloro-2-(2-cyano-4-(N-(thiazol-4-yl)sulfamoyl)phenoxy)phenyl)propyl)amino)propanoic acid] the value was above 1000 nM.

A further experiment deals with Acetic Acid Writhing Model. Briefly: Acetic Acid Writhing Model (visceral pain). The settings on record: relative to vehicle control; 10 to 30 mg/kg intraperitoneal. Format: in vivo. As to the method: Writhing Model The Acetic Acid Writhing Model is associated with visceral pain (abdominal pain, such as stomach pain, and pain caused by, for example, bile duct congestion and kidney stones). A writhing test assesses acute peritoneovisceral pain. After acclimation of 2-3 days, a test compound, positive control or vehicle control is administered by intraperitoneal injection (i.p.) or by oral gavage 15-30 minutes prior to administration of acetic acid. The time of administration of test compound is recorded. For mice: 0.6% Acetic acid solution in saline is injected i.p in a volume of 10 ml/kg. For rats: 4% acetic acid in saline is injected i.p in a volume of 2 ml/kg at T=0 minutes. Each animal is placed in a clear plastic cage. At T=5 minutes, the number of writhing movements is counted over a 45 minute period. Alternatively, the writhing movements are counted over a 5-minute period and repeated every 5 minutes, starting at T=5 minutes over a 45-minute period.
For orientation: Writhing tests count abdominal constrictions after an irritant is injected.
Turning to `O=C(O)CNC(=O)c1cc(-c2cc(Cl)ccc2Oc2cc(F)c(S(=O)(=O)Nc3ncns3)cc2Cl)ccn1` [Example 2, 2-(4-(2-(4-(N-(1,2,4-thiadiazol-5-yl)sulfamoyl)-2-chloro-5-fluorophenoxy)-5-chlorophenyl)picolinamido)acetic acid], the “reduction in pain response, writhing” value is listed as 48-58%.
